Data on 15 compounds can be found in patent US20130116263A1, “PAK INHIBITORS FOR THE TREATMENT OF CELL PROLIFERATIVE DISORDERS” (AFRAXIS, INC., priority 2011, published 2013).

Holding throughout (format): biochemical
Test [1] concerns the target PAK1 (Homo sapiens, UniProt Q13153). Briefly: In vitro PAK inhibition assay (Z'-LYTE, SelectScreen), PAK1. The conditions noted are these: read-out: PAK1 IC50. The procedure: (§1) Compounds are screened in 1% DMSO (final) in the well. For 10 point titrations, 3-fold serial dilutions are conducted. All Peptide/Kinase Mixtures are diluted to a 2× working concentration in the appropriate Kinase Buffer
The 2×PAK1/Ser/Thr 19 mixture is prepared in 50 mM HEPES pH 7.5, 0.01% BRIJ-35, 10 mM MgCl2, 1 mM EGTA.
(§2) 1. Add the following solutions to a well in a 384-well plate: • 2.5 μL of 4× Test Compound OR (100 nL 100× Test Compound plus 2.4 μL kinase buffer) • 5 μL of 2× Peptide/Kinase (PAK) Mixture • 2.5 μL of 4×ATP Solution
(§3) 3. Incubate the PAK Kinase Reaction at room temperature for 60-minutes
(§4) 4. Add 5 μL of Development Reagent Solution to each well
(§5) 6. Incubate the Development Reaction for 60-minutes
(§6) 7. Determine the fluorescence using a fluorescence plate reader
(§7) SelectScreen® Kinase Profiling Service uses XLfit from IDBS.
(§8) The representative IC50 value with a known inhibitor for each kinase was determined at the ATP bin nearest to the ATP Km app.

The target of test [2] is PAK2 (PAK65) (Homo sapiens, UniProt Q13177). Put plainly: In vitro PAK inhibition assay (Z'-LYTE, SelectScreen), PAK2. The conditions noted are these: read-out: PAK2 IC50. The procedure: as §1
The 2×PAK2 (PAK65)/Ser/Thr 20 mixture is prepared in 50 mM HEPES pH 7.5, 0.01% BRIJ-35, 10 mM MgCl2, 1 mM EGTA. The final 10 μL Kinase Reaction consists of 0.29-6 ng PAK2 (PAK65) and 2 μM Ser/Thr 20 in 50 mM HEPES pH 7.5, 0.01% BRIJ-35, 10 mM MgCl2, 1 mM EGTA.
as §2, §3, §4, §5, §6, §7, §8

The target in test [3] is PAK3 (Homo sapiens, UniProt O75914). Put plainly: In vitro PAK inhibition assay (Z'-LYTE, SelectScreen), PAK3. The procedure: as §1
The 2×PAK3/Ser/Thr 20 mixture is prepared in 50 mM HEPES pH 7.5, 0.01% BRIJ-35, 10 mM MgCl2, 1 mM EGTA.
as §2, §3, §4, §5, §6, §7, §8

The target of test [4] is PAK4 (Homo sapiens, UniProt O96013). Briefly: In vitro PAK inhibition assay (Z'-LYTE, SelectScreen), PAK4. The procedure:
as §1
The 2×PAK-4/Ser/Thr 20 mixture is prepared in 50 mM HEPES pH 7.5, 0.01% BRIJ-35, 10 mM MgCl2, 1 mM EGTA. The final 10 μL Kinase Reaction consists of 0.1-0.75 ng PAK-4 and 2 μM Ser/Thr 20 in 50 mM HEPES pH 7.5, 0.01% BRIJ-35, 10 mM MgCl2, 1 mM EGTA. After the 1 hour Kinase Reaction incubation, 5 μL of a 1:256 dilution of Development Reagent A is added.
as §2, §3, §4, §5, §6
SelectScreen® Kinase Profiling Service uses XLfit from IDBS. The dose response curve is curve fit to model number 205 (sigmoidal dose-response model).
The table below provides specifications and data around each kinase. The representative IC50 value with a known inhibitor for each kinase was determined at the ATP bin nearest to the ATP Km app.

Each structure is given as a SMILES string. Like-named read-outs stand apart in the source and are kept apart here.

PAK3, sequence (O75914 1-544 isoform O75914-2): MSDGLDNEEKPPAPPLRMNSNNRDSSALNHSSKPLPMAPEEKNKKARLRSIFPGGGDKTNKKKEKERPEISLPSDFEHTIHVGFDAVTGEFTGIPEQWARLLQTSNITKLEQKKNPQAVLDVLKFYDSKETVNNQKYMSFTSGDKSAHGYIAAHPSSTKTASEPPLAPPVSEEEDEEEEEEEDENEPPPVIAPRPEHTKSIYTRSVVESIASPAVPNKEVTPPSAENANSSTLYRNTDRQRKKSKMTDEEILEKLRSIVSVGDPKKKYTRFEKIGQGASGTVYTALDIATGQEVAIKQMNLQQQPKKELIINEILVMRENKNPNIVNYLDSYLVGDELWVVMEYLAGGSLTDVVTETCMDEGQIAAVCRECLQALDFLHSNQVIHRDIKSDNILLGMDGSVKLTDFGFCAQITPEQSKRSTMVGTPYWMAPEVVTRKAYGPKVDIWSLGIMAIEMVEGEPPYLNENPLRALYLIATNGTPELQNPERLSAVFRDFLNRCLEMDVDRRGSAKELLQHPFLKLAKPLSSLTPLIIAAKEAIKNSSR
PAK2 (PAK65), sequence (Q13177 whole entry): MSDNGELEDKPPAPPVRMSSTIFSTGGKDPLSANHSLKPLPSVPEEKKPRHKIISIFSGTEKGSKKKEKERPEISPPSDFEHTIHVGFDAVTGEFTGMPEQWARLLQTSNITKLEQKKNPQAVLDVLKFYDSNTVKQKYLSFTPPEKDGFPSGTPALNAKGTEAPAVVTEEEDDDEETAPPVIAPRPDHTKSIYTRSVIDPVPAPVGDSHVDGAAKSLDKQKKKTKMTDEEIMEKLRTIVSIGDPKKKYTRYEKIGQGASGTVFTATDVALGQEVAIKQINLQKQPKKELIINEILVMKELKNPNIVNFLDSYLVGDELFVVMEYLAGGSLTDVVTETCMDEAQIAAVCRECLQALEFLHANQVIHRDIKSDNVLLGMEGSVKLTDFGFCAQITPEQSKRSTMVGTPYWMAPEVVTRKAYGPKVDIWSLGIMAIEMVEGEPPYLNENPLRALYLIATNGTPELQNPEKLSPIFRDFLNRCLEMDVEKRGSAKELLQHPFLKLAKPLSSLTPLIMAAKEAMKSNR
PAK1, sequence (Q13153 whole entry): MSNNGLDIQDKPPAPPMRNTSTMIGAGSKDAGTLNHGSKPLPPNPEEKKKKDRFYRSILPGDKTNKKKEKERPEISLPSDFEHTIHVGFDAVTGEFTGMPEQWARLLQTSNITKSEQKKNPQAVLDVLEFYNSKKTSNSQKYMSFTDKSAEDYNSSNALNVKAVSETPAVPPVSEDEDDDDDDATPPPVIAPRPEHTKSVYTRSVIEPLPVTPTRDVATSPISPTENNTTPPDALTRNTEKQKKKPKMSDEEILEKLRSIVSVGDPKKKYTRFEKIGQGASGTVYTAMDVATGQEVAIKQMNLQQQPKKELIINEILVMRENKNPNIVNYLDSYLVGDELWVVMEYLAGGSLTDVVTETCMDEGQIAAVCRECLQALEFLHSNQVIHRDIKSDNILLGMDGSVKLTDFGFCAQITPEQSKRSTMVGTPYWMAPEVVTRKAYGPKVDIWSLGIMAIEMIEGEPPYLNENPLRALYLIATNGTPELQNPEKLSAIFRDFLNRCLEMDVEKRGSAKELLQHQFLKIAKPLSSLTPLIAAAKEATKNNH
PAK4, sequence (O96013 whole entry): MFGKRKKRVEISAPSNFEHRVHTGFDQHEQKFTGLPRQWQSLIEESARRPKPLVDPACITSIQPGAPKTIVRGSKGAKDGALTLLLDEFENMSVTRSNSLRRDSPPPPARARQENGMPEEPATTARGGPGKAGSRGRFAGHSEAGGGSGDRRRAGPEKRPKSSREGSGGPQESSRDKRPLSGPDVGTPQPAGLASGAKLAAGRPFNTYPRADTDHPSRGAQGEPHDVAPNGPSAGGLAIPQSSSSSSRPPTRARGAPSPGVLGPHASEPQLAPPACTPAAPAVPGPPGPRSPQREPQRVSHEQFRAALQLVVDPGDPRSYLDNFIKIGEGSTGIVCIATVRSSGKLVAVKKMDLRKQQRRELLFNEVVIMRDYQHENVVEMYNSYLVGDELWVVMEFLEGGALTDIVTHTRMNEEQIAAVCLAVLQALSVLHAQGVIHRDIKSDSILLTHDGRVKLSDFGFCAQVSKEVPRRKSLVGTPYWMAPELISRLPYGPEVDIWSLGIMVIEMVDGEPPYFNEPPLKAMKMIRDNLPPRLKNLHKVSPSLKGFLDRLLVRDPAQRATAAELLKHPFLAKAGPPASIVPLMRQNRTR

For `Cc1cnc(-c2ccc(-c3cc4cnc(NC5CCOCC5)nc4n(Cc4ccccc4C(F)(F)F)c3=O)c(Cl)c2)s1` [Example 26], the half-maximal inhibitory concentration (IC50) (commonly the concentration that inhibits the measured activity by half) was 50 to 500 nM in test [1], 50 to 500 nM in test [2], 50 to 500 nM in test [3] (read-out: PAK3 IC50) and more than 5000 nM in test [4].
For the compound `CCn1c(=O)c(-c2ccc(-c3nccnc3C)cc2Cl)cc2cnc(NC3CCCN(C)C3)nc21` (stereo not shown) [Example 81], the IC50 was 50 to 500 nM in test [1], 50 to 500 nM in test [2], more than 5000 nM in test [3] (read-out: PAK3 IC50) and more than 5000 nM in test [4].
Regarding `Cc1nccnc1-c1ccc(-c2cc3cnc(NC4CCOCC4)nc3n(Cc3ccccc3)c2=O)c(Cl)c1` [Example 16], the 50% inhibitory concentration (IC50) in test [1] is less than 50 nM; in test [2], less than 50 nM; in test [3] (read-out: PAK3 IC50), 50 to 500 nM; in test [4], more than 5000 nM.
On to `Cc1cncc(-c2ccc(-c3cc4cnc(NC5CCCC5)nc4n([C@H]4CC[C@H](N)CC4)c3=O)c(Cl)c2)n1` [Example 118], for which the half-maximal inhibitory concentration (IC50) in test [1] is less than 50 nM; in test [2], less than 50 nM; in test [3] (read-out: PAK3 IC50), less than 50 nM; in test [4] it was 500 to 5000 nM.
Regarding `CCn1c(=O)c(-c2ccc(-c3cncc(C)n3)cc2Cl)cc2cnc(NC3CNC(=O)C3)nc21` (stereo not shown) [Example 66], the IC50 in test [1] was 50 to 500 nM; in test [2], less than 50 nM; in test [3] (read-out: PAK3 IC50), 50 to 500 nM; in test [4], more than 5000 nM.
As for `CCn1c(=O)c(-c2cc(C)c(-c3noc(C)n3)cc2Cl)cc2cnc(N[C@@H]3CCOC3)nc21` [Example 92], the concentration for half-maximal inhibition (IC50) in test [3] (read-out: PAK3 IC50) fell in the range of 50 to 500 nM.
Regarding `CCn1c(=O)c(-c2ccc(-c3cccnc3)cc2Cl)cc2cnc(N[C@@H]3CCOC3)nc21` [Example 51], the IC50 in test [1] is 50 to 500 nM; in test [2] it was 50 to 500 nM; in test [3] (read-out: PAK3 IC50), 500 to 5000 nM; in test [4] it was more than 5000 nM.
As to `CCn1c(=O)c(-c2ccc(-c3ccncc3)cc2Cl)cc2cnc(NC3CCOCC3)nc21` [Example 43], the half-inhibitory concentration (IC50) is 500 to 5000 nM in test [1], 500 to 5000 nM in test [2], more than 5000 nM in test [3] (read-out: PAK3 IC50) and more than 5000 nM in test [4].
For `CCn1c(=O)c(-c2ccc(-c3nccnc3C)cc2Cl)cc2cnc(NC3CCOC(C)(C)C3)nc21` (racemic) [Example 30], the IC50 was less than 50 nM in test [1], less than 50 nM in test [2], less than 50 nM in test [3] (read-out: PAK3 IC50) and more than 5000 nM in test [4].
On to `CCn1c(=O)c(-c2ccc(-c3cncc(C)n3)cc2Cl)cc2cnc(NCCCOCCN)nc21` [Example 133], for which the IC50 is 50 to 500 nM in test [1], 50 to 500 nM in test [2], 500 to 5000 nM in test [3] (read-out: PAK3 IC50) and more than 5000 nM in test [4].
As to `CCn1c(=O)c(-c2ccc(-c3noc(C)n3)cc2Cl)cc2cnc(NCCC3CCNCC3)nc21` [Example 137], the IC50 in test [1] was 50 to 500 nM; in test [2] it was less than 50 nM; in test [3] (read-out: PAK3 IC50), 50 to 500 nM; in test [4], more than 5000 nM.
Regarding `CCn1c(=O)c(-c2ccc(-c3cncc(C)n3)cc2Cl)cc2cnc(N[C@@H]3CCOC3)nc21` [Example 28], the IC50 is less than 50 nM in test [1], less than 50 nM in test [2], 50 to 500 nM in test [3] (read-out: PAK3 IC50) and more than 5000 nM in test [4].
As to `CCn1c(=O)c(-c2ccc(-c3cccnc3C)cc2Cl)cc2cnc(N[C@@H]3CCOC3)nc21` [Example 59], the IC50 in test [1] is 500 to 5000 nM; in test [2] it was 500 to 5000 nM; in test [3] (read-out: PAK3 IC50), 500 to 5000 nM; in test [4] it was more than 5000 nM.
On to `Cc1cncc(-c2ccc(-c3cc4cnc(NC5CC5)nc4n([C@H]4CC[C@H](N)CC4)c3=O)c(Cl)c2)n1` [Example 112], for which the 50% inhibitory concentration (IC50) was less than 50 nM in test [1], less than 50 nM in test [2], less than 50 nM in test [3] (read-out: PAK3 IC50) and 500 to 5000 nM in test [4].
Turning to `CCn1c(=O)c(-c2ccc(-c3cncc(C)n3)cc2Cl)cc2cnc(NCCC3CCN(C)CC3)nc21` [Example 67], the IC50 in test [3] (PAK3 IC50 (nM)) is 50 to 500 nM; in test [4], more than 5000 nM.
